Assay results published in ChEMBL document CHEMBL3217677, “Synthesis, biological evaluation and X-ray crystallographic studies of imidazo[1,2-a]pyridine-based Mycobacterium tuberculosis glutamine synthetase inhibitors” (Medchemcomm, 2012).

Experiment: Inhibition of Mycobacterium tuberculosis glutamine synthetase expressed in Escherichia coli GJ4745 after 1 hr by colorimetry
Cn1c(N2CCOCC2)nc2c1c(=O)n(Cc1ccc(Cl)c(Cl)c1)c(=O)n2C showed an IC50 of 2.5 µM. With CC(C)Nc1c(-c2ccc(F)c(F)c2F)nc2ccc(Br)cn12 the IC50 was > 25 µM. With Oc1ccc(-c2nc3ccc(Br)cn3c2NC2CCCCC2)c(Cl)c1 the IC50 was > 25 µM. For CS(=O)(=O)c1cc(Cl)ccc1-c1nc2ccc(Br)cn2c1NC1CCCC1, the IC50 was > 25 µM. For COc1ccc(Nc2c(-c3ccc(OCc4ccccc4)c(OCc4ccccc4)c3)nc3ccc(Br)cn23)cc1, the IC50 was > 25 µM. With Fc1cc(-c2nc3ccc(Br)cn3c2NC2CCCC2)ccc1N1CCOCC1 the IC50 was > 25 µM. For CCCCNc1c(-c2ccc(OCCO)cc2)nc2ccc(Br)cn12, the IC50 was 3 µM. In the case of CN(C)c1ccc(-c2nc3ccc(Br)cn3c2NC2CCCC2)cc1, the IC50 is reported as > 25 µM. In the case of COc1cccc(-c2nc3ccc(Br)cn3c2NCCN2CCOCC2)c1OC, the IC50 is reported as > 25 µM. In the case of COc1cccc(-c2nc3ccc(Br)cn3c2NC2CCCC2)c1OCc1ccccc1, the IC50 is reported as > 25 µM. In the case of CC(C)(C)Nc1c(-c2ccccc2O)nc2ccc(Br)cn12, the IC50 is reported as > 25 µM. For Brc1ccc2nc(-c3ccccc3-c3ccccc3)c(NC3CCCC3)n2c1, the IC50 was > 25 µM. With CC(C)Nc1c(-c2cccc(N3CCOCC3)c2)nc2ccc(Br)cn12 the IC50 was > 25 µM. In the case of Brc1ccc2nc(-c3ccccc3)c(NCCc3ccccc3)n2c1, the IC50 is reported as > 25 µM. For CC(C)Nc1c(-c2ccc(OCCO)cc2)nc2ccc(Br)cn12, the IC50 was > 25 µM. For OCCOc1ccc(-c2nc3ccc(Br)cn3c2Nc2ccc(F)cc2)cc1, the IC50 was > 25 µM. For OCCOc1ccc(-c2nc3ccc(Br)cn3c2NC2CCCC2)cc1, the IC50 was > 25 µM. Work on CCCNc1c(-c2ccc(OCCO)cc2)nc2ccc(Br)cn12 yielded an IC50 of 3.9 µM. With CCCCCNc1c(-c2ccc(OCCO)cc2)nc2ccc(Br)cn12 the IC50 was 4.9 µM. CCCCNc1c(-c2ccc(N(C)CCO)cc2)nc2ccc(Br)cn12 gave an IC50 of 8.3 µM. In the case of CCCCNc1c(-c2ccc(OCC(=O)O)cc2)nc2ccc(Br)cn12, the IC50 is reported as 1.6 µM. CCCCNc1c(-c2ccc(N(CCO)CCO)cc2)nc2ccc(Br)cn12 gave an IC50 of 22 µM. CCCCNc1c(-c2ccc(OCCC)cc2)nc2ccc(Br)cn12 gave an IC50 of 15 µM. Work on CCCCNc1c(-c2ccc(OCC(N)=O)cc2)nc2ccc(Br)cn12 yielded an IC50 of 6.3 µM. With CCCCNc1c(-c2ccc(OCCN(C)C)cc2)nc2ccc(Br)cn12 the IC50 was 5.8 µM. Work on CCCCNc1c(-c2ccc(OCC#N)cc2)nc2ccc(Br)cn12 yielded an IC50 of 10 µM. CCCCNc1c(-c2cccc(OCCO)c2)nc2ccc(Br)cn12 gave an IC50 of 2.2 µM. CCCCNc1c(-c2ccc(OC)c(O)c2)nc2ccc(Br)cn12 gave an IC50 of 1.9 µM. For CCCCNc1c(-c2cccc(O)c2)nc2ccc(Br)cn12, the IC50 was 1.4 µM. CCCCNc1c(-c2cccc(C(=O)O)c2)nc2ccc(Br)cn12 showed an IC50 of 0.6 µM. With CCCCNc1c(-c2ccc(O)c(OC)c2)nc2ccc(Br)cn12 the IC50 was 1.5 µM.
